Here are results for six compounds from ChEMBL document CHEMBL1201862, “PubChem BioAssay data set” (2004).

Values joined by “and” are separate entries in the source; they are usually repeats but may differ in a detail not shown here. Identical values can stand only once. Active and inactive are the calls of the source.

The target of experiment [1] is Envelope glycoprotein gp160 (Human immunodeficiency virus 1, UniProt Q6QLK5). Put plainly: cell-free HIV fusion peptide-binding blockers – biochemical, uHTS, fluorescence dequenching, […] (AID 1986).
In experiment [2] the target is T1, Dual specificity protein phosphatase 3 (Homo sapiens, UniProt P51452). Put plainly: VHR1 phosphatase inhibitors, biochemical (AID 1878).
The target in experiment [3] is T2, Tyrosine-protein phosphatase non-receptor type 22 (Homo sapiens, UniProt Q9Y2R2).
T2 sequence (Q9Y2R2 whole entry): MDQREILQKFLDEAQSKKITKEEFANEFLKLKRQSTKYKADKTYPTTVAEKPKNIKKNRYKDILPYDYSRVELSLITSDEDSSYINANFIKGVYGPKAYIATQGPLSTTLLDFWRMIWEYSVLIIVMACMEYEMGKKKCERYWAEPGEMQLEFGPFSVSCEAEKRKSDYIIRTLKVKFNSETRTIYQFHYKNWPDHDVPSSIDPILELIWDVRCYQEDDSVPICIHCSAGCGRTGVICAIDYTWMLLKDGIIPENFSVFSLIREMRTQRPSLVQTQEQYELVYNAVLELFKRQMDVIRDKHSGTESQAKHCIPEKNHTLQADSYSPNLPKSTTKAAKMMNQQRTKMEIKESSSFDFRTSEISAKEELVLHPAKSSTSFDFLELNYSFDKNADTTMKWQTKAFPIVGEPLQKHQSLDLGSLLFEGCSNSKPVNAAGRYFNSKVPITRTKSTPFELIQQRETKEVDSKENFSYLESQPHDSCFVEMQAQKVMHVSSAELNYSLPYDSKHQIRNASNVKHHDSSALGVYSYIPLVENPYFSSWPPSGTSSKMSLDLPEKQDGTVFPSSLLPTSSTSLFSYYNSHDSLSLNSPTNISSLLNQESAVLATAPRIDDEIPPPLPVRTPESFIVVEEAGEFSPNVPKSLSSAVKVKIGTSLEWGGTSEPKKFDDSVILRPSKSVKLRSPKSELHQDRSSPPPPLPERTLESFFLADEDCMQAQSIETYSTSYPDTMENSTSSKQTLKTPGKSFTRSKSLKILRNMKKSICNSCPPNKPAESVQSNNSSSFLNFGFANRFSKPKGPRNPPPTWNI
Put plainly: SAR LYP1 Fluorescent Assay using OMFP substrate for In Vitro dose response studies - Set 3. [Related pubchem assays (depositor defined):AID1779, AID1784, AID2140, AID2686]. Format: functional.

A further experiment addresses Cytochrome P450 2C19 (Homo sapiens, UniProt P33261). Put plainly: Cytochrome panel assay with activity outcomes. Panel member name: p450-cyp2c19 Compounds with AC50 equal or less than 10 uM are considered active. Particulars: read-out: AC50. Format: functional.
Experiment [4] addresses Heat shock protein HSP 90-alpha (Homo sapiens, UniProt P07900). Format: functional, organism-based.
Experiment [5] is described as follows: luciferase reporter signal suppression in cells – H4 neuroglioma cells, luminescence, dose response (AID 1990). Format: functional, cell-based. On the technique in general: In a reporter assay the amount or activity of a reporter protein is the signal.
The target in experiment [6] is T3, Mannose-6-phosphate isomerase (Homo sapiens, UniProt P34949).
T3 sequence (P34949 whole entry): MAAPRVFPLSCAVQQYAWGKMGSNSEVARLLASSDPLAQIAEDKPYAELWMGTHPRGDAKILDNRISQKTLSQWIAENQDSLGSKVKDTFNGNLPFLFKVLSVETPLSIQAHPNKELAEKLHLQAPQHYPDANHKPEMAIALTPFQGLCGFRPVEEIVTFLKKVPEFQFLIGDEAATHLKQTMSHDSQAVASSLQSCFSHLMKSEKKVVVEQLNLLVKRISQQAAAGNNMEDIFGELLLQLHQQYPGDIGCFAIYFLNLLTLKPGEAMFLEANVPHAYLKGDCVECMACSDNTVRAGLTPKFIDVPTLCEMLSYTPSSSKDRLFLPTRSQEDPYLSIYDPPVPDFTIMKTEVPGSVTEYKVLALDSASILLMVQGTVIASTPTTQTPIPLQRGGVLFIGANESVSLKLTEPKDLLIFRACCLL
Put plainly: MPI inhibition at elevated mannose 6-phosphate – biochemical, fluorescence intensity, high mannose 6-phosphate, primary screen (AID 1220).

The next experiment concerns Vero. Put plainly: viability of Vero cells under compound – cytotoxicity control for flavivirus capping enzyme inhibitors (AID 588742). Format: functional. Particulars: Chlorocebus sabaeus.
Experiment [7] is described as follows: IC50 of Artemis nuclease activity blockers – biochemical, fluorescence intensity, dose response (AID 720701).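 Further: Artemis endonuclease enzyme.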 Type of experiment: functional.
Experiment [8] has as its target T1, Dual specificity protein phosphatase 3. Briefly: VHR phosphatase inhibition, dose response, selectivity assay for STEP inhibitor project, biochemical (AID 602374). Particulars: read-out: IC50_Mean. Format: functional.
The next experiment has as its target Albumin (Bos taurus, UniProt P02769). Put plainly: Counterscreen for inhibitors of T-cell receptor (TCR)-CD3 interaction: Fluorescence-based biochemical high throughput dose response assay to identify inhibitors of T-cell receptor (TCR)-CD3 interaction using a TAMRA-labeled BSA probe. Type of experiment: functional.

T1 sequence (P51452 whole entry): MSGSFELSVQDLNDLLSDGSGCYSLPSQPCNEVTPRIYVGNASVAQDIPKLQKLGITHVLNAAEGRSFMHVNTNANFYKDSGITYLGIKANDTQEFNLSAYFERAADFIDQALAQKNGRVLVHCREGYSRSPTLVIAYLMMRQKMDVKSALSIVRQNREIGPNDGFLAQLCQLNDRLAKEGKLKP
Sequence of Cytochrome P450 2C19 (P33261 whole entry): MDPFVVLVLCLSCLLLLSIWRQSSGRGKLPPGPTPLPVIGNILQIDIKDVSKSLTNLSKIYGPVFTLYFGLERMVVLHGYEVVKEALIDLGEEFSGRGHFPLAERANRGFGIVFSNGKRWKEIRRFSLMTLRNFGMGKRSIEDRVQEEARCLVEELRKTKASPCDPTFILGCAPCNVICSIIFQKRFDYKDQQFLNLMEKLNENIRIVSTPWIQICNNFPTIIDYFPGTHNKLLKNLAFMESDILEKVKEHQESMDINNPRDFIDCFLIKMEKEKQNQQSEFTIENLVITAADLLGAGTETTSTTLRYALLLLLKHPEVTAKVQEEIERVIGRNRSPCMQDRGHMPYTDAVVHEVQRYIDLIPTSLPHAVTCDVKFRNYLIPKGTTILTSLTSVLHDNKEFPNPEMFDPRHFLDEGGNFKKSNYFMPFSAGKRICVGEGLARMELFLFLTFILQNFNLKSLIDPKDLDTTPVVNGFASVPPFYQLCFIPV
Sequence of Albumin (P02769 whole entry): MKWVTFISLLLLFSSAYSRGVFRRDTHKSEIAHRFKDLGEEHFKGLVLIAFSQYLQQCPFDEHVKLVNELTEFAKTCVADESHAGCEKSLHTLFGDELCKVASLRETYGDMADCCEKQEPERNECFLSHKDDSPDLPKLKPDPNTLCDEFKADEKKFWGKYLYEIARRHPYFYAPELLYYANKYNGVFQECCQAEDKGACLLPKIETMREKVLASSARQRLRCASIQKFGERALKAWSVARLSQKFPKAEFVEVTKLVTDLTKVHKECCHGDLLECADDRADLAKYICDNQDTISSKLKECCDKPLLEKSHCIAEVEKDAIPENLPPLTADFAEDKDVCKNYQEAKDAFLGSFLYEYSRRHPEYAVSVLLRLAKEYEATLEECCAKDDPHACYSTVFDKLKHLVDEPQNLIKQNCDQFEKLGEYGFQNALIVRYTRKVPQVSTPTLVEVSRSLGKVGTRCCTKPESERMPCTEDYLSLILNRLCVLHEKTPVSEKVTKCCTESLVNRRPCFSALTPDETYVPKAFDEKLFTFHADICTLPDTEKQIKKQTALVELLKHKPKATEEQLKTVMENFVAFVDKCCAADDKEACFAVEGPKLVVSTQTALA
Sequence of Envelope glycoprotein gp160 (Q6QLK5 whole entry, the tested form may be a part): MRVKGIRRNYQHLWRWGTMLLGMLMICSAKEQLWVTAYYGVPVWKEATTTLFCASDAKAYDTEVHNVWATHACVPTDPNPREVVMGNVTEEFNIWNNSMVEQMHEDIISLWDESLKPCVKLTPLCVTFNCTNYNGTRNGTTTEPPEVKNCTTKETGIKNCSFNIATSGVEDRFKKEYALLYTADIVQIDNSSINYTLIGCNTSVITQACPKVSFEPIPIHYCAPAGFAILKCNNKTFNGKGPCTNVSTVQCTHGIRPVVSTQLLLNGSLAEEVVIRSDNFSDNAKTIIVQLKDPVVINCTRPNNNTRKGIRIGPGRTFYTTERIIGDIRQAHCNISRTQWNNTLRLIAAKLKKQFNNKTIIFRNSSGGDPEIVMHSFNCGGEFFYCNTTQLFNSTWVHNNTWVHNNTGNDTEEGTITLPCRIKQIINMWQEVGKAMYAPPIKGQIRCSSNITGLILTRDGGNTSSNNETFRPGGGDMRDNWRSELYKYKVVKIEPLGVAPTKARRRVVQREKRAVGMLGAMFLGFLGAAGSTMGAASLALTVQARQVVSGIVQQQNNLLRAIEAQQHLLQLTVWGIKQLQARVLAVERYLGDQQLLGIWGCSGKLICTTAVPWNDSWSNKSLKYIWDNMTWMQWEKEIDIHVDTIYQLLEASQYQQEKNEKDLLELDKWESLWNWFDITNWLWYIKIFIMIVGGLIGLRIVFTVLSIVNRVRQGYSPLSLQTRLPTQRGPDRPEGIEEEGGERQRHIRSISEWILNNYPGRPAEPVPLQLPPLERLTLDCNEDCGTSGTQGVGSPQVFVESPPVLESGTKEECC

In the case of `O=C(O)COc1ccc(/C=N/NC(=O)c2ccc(-c3csc(Nc4ccc(Cl)cc4)n3)cc2)cc1`, the IC50 in [1] was 15 µM (active); in experiment [2], 1.3 µM (active); in experiment [3], 626 nM (active).
Turning to `COc1ccc(C(=O)Nc2nc3c(s2)Cc2cc(OC)ccc2-3)cc1`, the AC50 on Cytochrome P450 2C19 was 5.01 µM (inconclusive).
With `CCN1/C(=C/c2ccc3cc(C)ccc3[n+]2CC)Sc2cc(C)c(C)cc21`, the AC50 in experiment [4] was 4.16 µM (active) and 2.67 µM (active). In addition, the EC50 in “cells” is 46 nM (active).
For the compound `Cc1oc2c(c1C(=O)c1ccccc1)C(=O)C(=O)c1ccccc1-2`, in [5], the EC50 was > 120 µM (not active). The IC50 in experiment [6] was > 50 µM (not active); in experiment [7], 1.48 µM (active). In the experiment with Vero, the CC50 is 6.37 µM (active).
On to `CSc1ccc(C=NNc2ccc(S(=O)(=O)Nc3ccccc3C(=O)O)cc2[N+](=O)[O-])cc1`, for which the IC50 in experiment [8] is 1.27 µM (active).
For `Nc1ccc2nc3c(O)nc(S)nc3nc2c1`, the IC50 on Albumin was 25.6 µM (inactive).

Broadly, the AC50 is the concentration at which the activity in the assay is half-maximal. For orientation: EC50 means the concentration giving half of the maximal effect. The CC50 is the concentration that lowers cell viability or growth by half.
